In patent US9695481B2, “Polynucleotides comprising a reporter sequence operatively linked to a regulatory element” (UNIVERSITEIT LEIDEN, priority 2010, dated 2017):
Counter-ions that a name gives are not always drawn. Like-named read-outs stand apart in the source and are kept apart here.

Experiments:
[1] = test system: Bscl2-GFP and Srxn1-GFP mES reporter cells
[2] = Genotoxicity profile; data extracted from Kirkland et al. 2008; cited from earlier work
[3] = cited from earlier work
Salmonella = settings: cited from earlier work
[4] = test system: mouse ES cell lines containing a DsRed fluorescent reporter; settings: cited from earlier work
[5] = Genotoxicity profile, data extracted from Kirkland et al. 2008
[6] = from which GFP reporter is induced

Compound | Bscl2-GFP/Srxn1-GFP Prim. toxic properties [1] | In vitro genotoxicity [2] | In vivo genotoxicity [3, 5] | Ames test (Salmonella; [5]) | Bscl2-GFP/Srxn1-GFP GFP Induction [1] | mES DsRed reporters ([4]; Hendriks et al. 2011) | In vivo genotoxicity ([3]; in vivo) | Ames test (Salmonella) | Bscl2-GFP/Srxn1-GFP Prim. toxic properties [1, 6] | mES DsRed reporters [4]
Oc1cccc(O)c1 [1,3-Dihydroxybenzene (Resorcinol), 1,3-Dihydroxybenzene] | Equivocal | Pos. | Neg. | Neg. |  |  |  |  |  | 
Oc1ccc(Cl)cc1Cl [2,4-dichlorophenol] | Pro-oxidant |  |  |  | Pos. (key: Pos.: considered positive when exposure to at least two different concentrations of a compound resulted in >1.5 fold induction of GFP expression) | Pos. | Weak Pos. | Neg. |  | 
CCCCCC(O)C=CC=O (centres unmarked) [4-Hydroxy-2-nonenal] | Pro-oxidant | Pos. | Neg. | Neg. |  |  |  |  |  | 
O=[N+]([O-])c1cc[n+]([O-])c2ccccc12 [4-Nitroquinelone-1-oxide] |  | Pos. | Pos. |  | Pos. (considered positive when exposure to at least two different concentrations of a compound resulted in >1.5 fold induction of GFP expression) |  |  |  | Genotoxin | 
C[N+](C)(C)CCCl.[Cl-] [(2-chloroethyl)trimethyl-ammonium chloride] |  |  |  |  | Neg. |  |  | Neg. |  | Neg.
Nc1nc[nH]n1 [Amitrole] |  | Neg. | Neg. | Neg. | Neg. | Neg. |  |  |  | 
OCc1ccccc1 [Benzyl alcohol] |  | Weak Pos. |  | Neg. | Neg. | Neg. |  |  |  | 
CC[C@@]1(O)C(=O)OCc2c1cc1n(c2=O)Cc2cc3ccccc3nc2-1 [Camptothecin] |  | Pos. | Neg. | Neg. | Pos. (considered positive when exposure to at least two different concentrations of a compound resulted in >1.5 fold induction of GFP expression) |  |  |  | Genotoxin | 
COc1cc(/C=C/C(=O)CC(=O)/C=C/c2ccc(O)c(OC)c2)ccc1O [Curcumln] |  | Pos. |  | Neg. | Neg. | Neg. |  |  |  | 
O=C1CCCCC1 [Cyclohexanone] |  | Neg. |  | Neg. | Neg. | Neg. |  |  |  | 
Nc1ccn([C@@H]2O[C@H](CO)[C@@H](O)[C@@H]2O)c(=O)n1 [Cytarabine] | Genotoxin |  |  |  |  |  |  | Neg. |  | 
C=C(C)[C@H]1CC=C(C)CC1 [D-limonene] |  |  |  |  | Neg. | Neg. |  |  |  | 
OCCNCCO [Diethanolamine] |  | Neg. | Neg. | Neg. | Neg. | Neg. |  |  |  | 
CC[C@H]1OC(=O)[C@H](C)[C@@H](O[C@H]2C[C@@](C)(OC)[C@@H](O)[C@H](C)O2)[C@H](C)[C@@H](O[C@@H]2O[C@H](C)C[C@H](N(C)C)[C@H]2O)[C@](C)(O)C[C@@H](C)C(=O)[C@H](C)[C@@H](O)[C@]1(C)O [Erythromycin stearate] |  |  |  | Neg. | Neg. |  |  |  |  | 
CCc1cc(C(N)=S)ccn1 [Ethionamide] |  | Weak Pos. |  | Neg. | Neg. | Neg. |  |  |  | 
C=CC(=O)OCC [Ethyl acrylate] |  |  |  |  | Neg. | Neg. | Weak Pos. | Neg. |  | 
C=CCc1ccc(O)c(OC)c1 [Eugenol] |  |  |  | Neg. | Neg. |  | Equivocal |  |  | Neg.
CN1CC[C@H](c2c(O)cc(O)c3c(=O)cc(-c4ccccc4Cl)oc23)[C@H](O)C1 [Flavopiridol] |  |  |  |  | Neg. |  |  |  |  | 

Compound | Bscl2-GFP/Srxn1-GFP Prim. toxic properties [1] | In vitro genotoxicity [2] | In vivo genotoxicity [3, 5] | Ames test (Salmonella; [5]) | Bscl2-GFP/Srxn1-GFP GFP Induction [1] | mES DsRed reporters ([4]; Hendriks et al. 2011) | In vivo genotoxicity ([3]; in vivo) | Ames test (Salmonella) | Bscl2-GFP/Srxn1-GFP Prim. toxic properties [1, 6] | mES DsRed reporters [4]
CN(C)C(=O)Nc1cccc(C(F)(F)F)c1 [Fluometron] |  | Neg. |  | Neg. | Neg. | Neg. |  |  |  | 
ClC(Cl)(Cl)C(Cl)(Cl)Cl [Hexachloroethane] |  | Neg. | Neg. | Neg. | Neg. | Neg. |  |  |  | 
OO [Hydrogen peroxide] | Pro-oxidant | Pos. | Neg. | Pos. |  | Neg. |  |  |  | 
CC(C)C=O [Isobutyraldehyde] |  |  |  |  | Neg. |  |  |  |  | Neg.
COC(N)=O [Methyl carbamate] |  | Neg. | Neg. |  |  |  |  |  |  | 
NC(=S)N(C1CCCCC1)C1CCCCC1 [N,N-dicyclohexyl thiourea] |  | Neg. |  | Neg. | Neg. | Neg. |  |  |  | 
[H]/N=C(/N)N/C(=N/[H])NCCc1ccccc1 [Phenformin HCl] |  |  |  |  | Neg. | Neg. |  |  |  | 
CCCOC(=O)c1cc(O)c(O)c(O)c1 [Propyl gallate] | Equivocal | Pos. | Equivocal | Neg. |  | Pos. |  |  |  | 
c1ccncc1 [Pyrldlne] |  | Neg. | Neg. | Neg. | Neg. | Neg. |  |  |  | 
O=C1NS(=O)(=O)c2ccccc21.[Na] [Sodium saccharin] |  |  |  |  | Neg. |  | Neg. | Neg. |  | Neg.
Cc1noc(NS(=O)(=O)c2ccc(N)cc2)c1C [Sulfisoxazole] | Pro-oxidant |  |  | Neg. | Pos. (key: Pos.: considered positive when exposure to at least two different concentrations of a compound resulted in >1.5 fold induction of GFP expression) | Neg. |  |  |  | 
CC(=O)O[C@H]1C(=O)[C@@]2(C)[C@H]([C@H](OC(=O)c3ccccc3)[C@]3(O)C[C@H](OC(=O)[C@H](O)[C@@H](NC(=O)c4ccccc4)c4ccccc4)C(C)=C1C3(C)C)[C@]1(OC(C)=O)CO[C@@H]1C[C@@H]2O [Taxol] | Genotoxin | Pos. | Pos. | Neg. |  |  |  |  |  | 
CC(C)(C)OO [Tert-butyl hydroperoxide] |  |  |  |  | Pos. (key: Pos.: considered positive when exposure to at least two different concentrations of a compound resulted in >1.5 fold induction of GFP expression) |  |  |  |  | Neg.
NC(N)=O [Urea] |  | Pos. |  | Neg. | Neg. | Neg. |  |  |  | 
O=[N+]([O-])c1ccc(O)cc1 [p-Nitrophenol] | Pro-oxidant |  |  |  | Pos. (key: Pos.: considered positive when exposure to at least two different concentrations of a compound resulted in >1.5 fold induction of GFP expression) |  |  |  |  | Neg.
Nc1ccc(Cl)cc1 [p-chloroaniline] |  |  |  |  | Neg. |  | Pos. | Pos. |  | Neg.
Bleomycin |  | Pos. | Pos. | Pos. | Pos. (considered positive when exposure to at least two different concentrations of a compound resulted in >1.5 fold induction of GFP expression) |  |  |  | Genotoxin | 
n-butyl chloride |  |  |  |  |  |  |  |  |  | Neg.
